In a compilation of properties of binary mixtures (doi:10.1016/j.jct.2010.03.017):

Test: xn = mol fraction of the nth substance listed
Details: 101 kPa

CC[n+]1ccn(C)c1.N#C[N-]C#N + O
electrical conductivity [S/m]
Details	x2 = 0.2	x2 = 0.4	x2 = 0.6	x2 = 0.8
293.2 K	2.72	3.47	–	–
298.2 K	3.09	3.91	5.06	6.41
303.2 K	3.48	4.4	5.7	7.2
308.2 K	–	4.91	–	8
313.2 K	–	5.43	7.03	–
318.2 K	–	5.97	7.73	9.63
323.2 K	5.25	6.52	8.42	10.5
328.2 K	–	7.08	9.14	11.4
333.2 K	6.22	7.65	9.85	12.2
338.2 K	6.71	–	–	13.1
343.2 K	7.26	8.81	11.3	13.9
348.2 K	7.79	9.42	12	14.8
353.2 K	8.36	10	12.7	15.6

CCn1cc[n+](C)c1.COCCOCCOS(=O)(=O)[O-] + O
electrical conductivity [S/m]
Details	x2 = 0.2	x2 = 0.4	x2 = 0.6	x2 = 0.8
293.2 K	0.19	0.24	0.42	0.82
298.2 K	0.23	–	–	0.99
303.2 K	0.3	0.38	0.63	1.18
308.2 K	0.38	0.47	0.76	1.4
313.2 K	–	0.57	0.9	–
318.2 K	0.56	0.68	1.06	1.87
323.2 K	0.67	0.79	1.22	2.12
328.2 K	0.79	–	1.4	2.39
333.2 K	0.92	1.06	1.58	2.68
338.2 K	–	1.2	–	–
343.2 K	1.2	1.35	1.96	–
348.2 K	–	–	2.17	3.59
353.2 K	1.51	1.68	–	–
